Data taken from the NIST ThermoML archive (doi:10.1016/j.fluid.2007.03.019).

Assay: osmotic coefficient (dimensionless); mn = molality of the nth substance listed, in mol/kg
Settings: 318.15 K, 101 kPa, Liquid

CCCCn1cc[n+](C)c1.F[B-](F)(F)F [1-butyl-3-methylimidazolium tetrafluoroborate] + O
vapor pressure osmometry
Settings	osmotic coefficient
m1 = 0.0101	1.01
m1 = 0.0355	0.992
m1 = 0.044	0.927
m1 = 0.0701	0.887
m1 = 0.0971	0.864
m1 = 0.152	0.808
m1 = 0.1977	0.793
m1 = 0.2891	0.739
m1 = 0.3968	0.672
m1 = 0.4678	0.657
m1 = 0.5632	0.611
m1 = 0.799	0.532
m1 = 1.023	0.473
m1 = 1.468	0.372
m1 = 2.417	0.257

CCCCn1cc[n+](C)c1.F[P-](F)(F)(F)(F)F [1-butyl-3-methylimidazolium hexafluorophosphate] + CC#N
osmometer
Settings	osmotic coefficient
m1 = 0.0116	0.76
m1 = 0.019	0.636
m1 = 0.0321	0.477
m1 = 0.0366	0.436
m1 = 0.0544	0.323
m1 = 0.0691	0.278
m1 = 0.0918	0.287
m1 = 0.1015	0.314
m1 = 0.1285	0.415
m1 = 0.1496	0.515
m1 = 0.1789	0.692
m1 = 0.2032	0.857

CCCCn1cc[n+](C)c1.[Br-] [1-butyl-3-methylimidazolium bromide] + O
vapor pressure osmometry
Settings	osmotic coefficient
m1 = 0.022	0.944
m1 = 0.0461	0.926
m1 = 0.0726	0.894
m1 = 0.1241	0.855
m1 = 0.2702	0.809
m1 = 0.3522	0.785
m1 = 0.3994	0.777
m1 = 0.5204	0.755
m1 = 0.7354	0.726
m1 = 0.9713	0.713
m1 = 1.272	0.701
m1 = 2.024	0.69

CCCCn1cc[n+](C)c1.F[B-](F)(F)F [1-butyl-3-methylimidazolium tetrafluoroborate] + CC#N
osmometer
Settings	osmotic coefficient
m1 = 0.0093	0.906
m1 = 0.0203	0.648
m1 = 0.0341	0.462
m1 = 0.0631	0.293
m1 = 0.0795	0.273
m1 = 0.1043	0.314
m1 = 0.1163	0.344
m1 = 0.1359	0.412
m1 = 0.1472	0.462
m1 = 0.1631	0.553
m1 = 0.1791	0.646
m1 = 0.2091	0.872
